The values that follow come from US5736565A, “Therapeutic compounds suitable for the treatment of diseases connected with glutathione deficiency, process for their preparation, and pharmaceutical compositions containing same” (Prospa B.V., priority 1992, dated 1998).

The nature of data set [1]: Behaviour and death rate of the test groups under PSC treatment. The following applies: in vivo.
The subject of the next data set is serum GPT. Put plainly: Test No. 4: dichloropropane (DCP) intoxication in vivo, serum GPT. Details: species or system rat. How it is done:
(§1) A test was carried out in vivo on four groups of four rats each, using, as a toxic substance, dichloropropane (DCP), the main constituent of several solvents. DCP is noxious both by ingestion and inhalation and has a notable toxicity to the liver, mediated by an almost total depletion of thiol groups, including those of GSH.
(§2) The experimental model involves the study of the effect of DCP toxicity in the rat, in respect of glutathione (GSH) concentration in the main target tissue: the liver.
(§3) Tests were carried out on four groups of rats. The first group of animals was administered 2 ml DCP/kg dissolved in oil (40% v/v) per os. Twenty-four hours after DCP administration, blood samples were taken for SGPT measurement, while the animals were sacrificed; small portions of liver were then excised and immediately deproteinized by homogenization in 6% PCA. The chromatographic analyses of GSH and GSSG (oxidized glutathione) were performed.
(§4) The second group of animals was treated with the test drug (600 mg/kg i.p.) two hours after DCP administration. The third and fourth groups were treated with N-acetyl-cysteine (NAC) (250 mg/kg i.p.) and, respectively, with glutathione (Tationil^R) (600 mg/kg i.p.).

The next data set relates to DCP toxicity in the rat. Put plainly: Test No. 4: dichloropropane (DCP) intoxication in vivo, death rate and signs. The note with it: DCP-treated rats. Here is the method:
as §1, §2, §3, §4

The subject of a further data set is peripheral lymphocytes. Nature of the data set: Blastization with concavaline A (ConA) of peripheral lymphocytes of PSC-treated rats. In kind it is in vivo, Sprague-Dawley rats. Here is the method:
(§5) Sprague-Dawley rats (Charles River, Calco (CO)), aged 10 weeks (young adults) and 24 months (old), were stabled under standard conditions (24°±1° C., 12 h light/dark cycle, free access to food and water). Handlings were made in such a way as to avoid stressful stimuli.
(§6) The animals were stabled in groups of 6 per cage and treated for 2 weeks (15 days) with a PSC daily dose of 600 mg/kg by intraperitoneal route (i.p.).
Once the treatment with PSC previously described in the paragraph "Animals" was completed, the animals, both young and old, were sacrificed by decapitation and the blood collected in heparin-treated tubes. The blood samples were stratified on Ficoll-Paque gradient and centrifuged at 2500 rpm for 15 min. The lymphocytic cellular fraction was taken by suction and washed three times with a Lphysiological solution (0.9% NaCl). At the end of the treatment, the cells were resuspended in culture medium RPMI 1640 containing 10% FBS, counted (1×10^5 cells/0.1 ml/well) and incubated for 48 hrs at 37° C., in a 5% carbon dioxide environment. At the incubation end, mitogens concavaline A (ConA) and phytohaemagglutinin (PHA) were added to the cultures at a concentration of 1 μg/ml in a volume of 0.1 ml. Eighteen hours later, tritiated thymidine (0.01 ml) was added to the cultures, subsequently incubated for 3 hrs. At the incubation end, cells were sucked by cell harvester and the filters were placed in scintillation vials with addition of 5 ml of scintillating solution. Radioactivity (dpm) was measured 2 min. using a β-counter.
The results obtained on ConA- or PHA-treated groups (controls), on PSC-treated groups (600 mg/kg), and on groups that had not been treated either with ConA or PSC are compared in Tables 14 and 15.

Data set [2] has as its system malonic aldehyde (MDA) in brain. Put plainly: PSC effect on lipid peroxidation (MDA) in rat SNC. The data set is classed as in vivo, male Wistar rats. The note with it: old animals, 100 mg/kg i.p. An excerpt: Since lipid peroxidation, i.e. the oxidation of an α-methylenic bridge of a polyunsaturated fatty acid, is a process that, through the formation of intermediates (such as lipid peroxides and hydroperoxides), provide carbonyl fragments, including malonic aldehyde (MDA), efforts were made by the Applicant to check whether administration of the test molecule might reduce MDA levels in the SNC, which are closely related to the presence of free radicals and, consequently, to a potential neuronal damage, which is strongly responsible for the induction of age-related alterations.
The test was carried out on male Wistar rats stabled in groups of 5/cage, at 21° C. and constant light/dark cycle, fed with standard laboratory food.
[…] was assayed both on young and old rats, prior to and after treatment with PSC (100 mg/kg). A few hours after treatment, all animals were sacrificed and their brain readily excised. MDA was determined by a micromethod modified according to Slater and Sawyer (Slater T. F. and Sawyer B. C., 1971, J. Biochem., Tokio 8: 2180). The tissue was maintained 10 min. at 0° C. in 0.05M Tris-HCl buffer, pH 7.4, and homogenized. […] After cooling, the absorbance at 532 nm was recorded by a spectrophotometer. […] Proteins were measured by Smith's method using, as a reagent, bicinchoninic acid (BCA) (Smith et al., 1985, Anal. Biochem., 27, 502).

The next data set deals with interleukin-2 (IL-2). Put plainly: Interleukin-2 (IL-2) production following interleukin-1 (IL-1) i.p. injection in young and old rats. In kind it is in vivo, Sprague-Dawley rats. The following applies: i.p. treated groups. How it is done:
as §5, §6
With a view to evaluating a further aspect of the immunological activity in PSC-treated (600 mg/kg) animals, according to the aforementioned scheme, an investigation was carried out on interleukin-2 (IL-2) response to the injection of IL-1 that, as known, stimulates IL-2 production from lymphocytes.
Once the treatment was completed, each rat was administered IL-1 (0.1 mg/kg, i.p.). One hour after injection, the animals were killed by decapitation, the blood was collected and centrifuged, and the plasma maintained at -20° C. until IL-2 dosing.
The evaluation of IL-2 production was based on an immunological assay, utilizing a specific antibody produced in heterologous species against rat IL-2. Samples were assayed twice.
The controls are rats treated only with IL-1.

Where [3] appears, read: 600 mg/kg, analogous for ConA and PHA.

Where “and” joins values, the source holds several entries; their conditions need not be identical. Identical values can stand only once. Peptide text beside a SMILES is read from it.

Take `CC(=O)SC[C@H](NC(=O)[C@@H]1CCC(=O)N1)C(=O)O` [PSC, 2-(S)-(2-pyrrolidone-5-(S)-carbonyl amido)-3-acetylmercapto propionic acid] (HELM PEPTIDE1{[Glp].C}|PEPTIDE2{[ac]}$PEPTIDE1,PEPTIDE2,2:R3-1:R2$$$V2.0): in data set [1], the “behaviour and death rate of the test groups (in words)” value is “did not significantly affect the behaviour and death rate of the various test groups”; the “death in tested groups (in words)” value is “no death occurred in all tested groups”. For the same compound, in the data set with serum GPT (DCP + 600 mg/kg i.p.), the “GPT, average values” was found to be 22.0 U/1. The “GPT, individual animals” value in the data set with serum GPT (DCP + 600 mg/kg i.p., animals 1-4, listed as (I) (R = CH3), 600 mg/kg) was 24.4 U/1 and 26.4 U/1 and 17.4 U/1 and 20.1 U/1. Moreover, in the data set on serum GPT (DCP + (I)(R=CH3)), the “GPT” value amounted to 22.0 U/l. Also, in the data set on serum GPT (DCP-treated rats), the “Serum GPT (in words)” value is given as “maintained within standard limits”. Further, in the data set on DCP toxicity in the rat, the “behavioural (torpor) and postural (ataxia) disorders (in words)” value is given as “did not show any notable modification of said parameters”; the “death (in words)” value is “no death occurred”; the “macroscopic examination of liver (in words)” value was “showed liver parenchyma within standard limits”. Moreover, the “coagulative disorders (in words)” value with DCP toxicity in the rat (merely qualitative examination) is recorded as “absent”. For the same compound, the “blastization (tritiated thymidine incorporation), Young” value in the data set with peripheral lymphocytes (600 mg/kg i.p. 15 days + ConA) is given as 714 ± 23 DPM × 100. For the same compound, in the data set with peripheral lymphocytes (600 mg/kg i.p. 15 days + ConA, *P < 0.05), the “blastization (tritiated thymidine incorporation), Elderly” value came to 512 ± 27 DPM × 100. Besides, in the data set on peripheral lymphocytes (setting [3]), the “incorporation index of tritiated thymidine, young rats (in words)” value was “did not differ from controls” and the “index of thymidine incorporation, old rats (in words)” value is on record as “showed an increased index of thymidine incorporation in respect of controls”. In data set [2], the MDA is reported as 0.723 +/- 0.32 nmols/mg proteins. The “IL-2 levels (in words)” value with interleukin-2 (IL-2) is on record as “significant increases were detected in the groups treated i.p. with PSC”.
